In patent US9630964B2, “Fluoro-9-methyl-β-carbolines” (priority 2013, dated 2017):

What was measured:
[1] = tested on: human neuroblastoma cells (SH-SY5Y); test: Differentiation of human neuroblastoma cells (SH-SY5Y), morphological examination; assay type: cell-based; conditions: SH-SY5Y
Description: The SH-SY5Y cell line was obtained from the German collection of microorganisms and cell cultures—DSMZ, Braunschweig. The cells were cultivated in MEM (Minimum essential medium, Life Technologies) with 10% FCS (fetal calf serum, Biochrom AG) and penicillin/streptomycin (Biochrom AG). For morphological examinations the cells were seeded in a density of 1.5×10^4 cells/cm^2 in 24-well plates (Falcon, cell culture treated) with 1 mL medium. A stock solution of 10 mmol/L of the compound according to the invention 6-fluoro-9-methyl-β-carboline was prepared in 50% ethanol and sterile filtered. Five hours after seeding of the cells the compound according to the invention 6-fluoro-9-methyl-β-carboline was added in the corresponding amount to the medium achieving the desired final concentration. The medium was changed once a week. The cells were regularly microscopically examined. Microscopic images were taken at BZ Keyence 10 with a 10×lens and 4×digital zoom. An automatic contrast enhancement was made with the program BZ Analyzer.

CREB = test: Examination on cellular level: concentration of CREB; assay type: cell-based
[2] = tested on: BDNF (brain derived neurotrophic factor); test: Examination on cellular level: concentration of BDNF; assay type: cell-based
[3] = tested on: Cbln (Cerebellin 1 precursor protein); test: Quantitative RT-PCR, relative gene expression of Cbln in SH-SY5Y cells; assay type: cell-based, human; conditions: 30 μM each, except after 2-day exposition
Description: (§1) SH-SY5Y cell lines, which were provided by the institute of human genetics of university hospital Eppendorf and which they in turn received from Braunschweig resource center, were used again for the RT-PCR experiments (reverse transcriptase polymerase chain reaction) carried out for this purpose.
(§2) The cells were incubated in MEM (Minimum essential medium, Life Technologies) with 10% FCS (fetal calf serum, Biochrom AG) and penicillin/streptomycin (Biochrom AG). The cells were seeded with a density of 1×10^5 cells/cm^2 in 25 cm^2 cell culture bottles (Falcon, cell culture treated) with 5 mL medium. […]
(§3) The RNA-isolation was done with the HighPure RNA Isolation kit of the company Roche. […] The concentration of RNA was measured with nanoDrop spectrometer and the RNA integrity was determined with the aid of the Bioanalyzer 2100 (Agilent). […]
(§4) After the reaction, this run was diluted 1:4 and thereof 2 μL per each quantitative RT-PCR were used. This was performed in a LightCycler 480 under standard conditions in the SybrGreen format with annealing temperatures determined for each primer individually. […]
(§5) The specificity was verified by melting curve analysis and subsequent gel electrophoresis. For each PCR the PCR efficiency and the Cq value was determined by the program LinRegPCR and these were used in further calculations. […]

[4] = tested on: BDNF (brain-derived neurotrophic factor); test: Quantitative RT-PCR, relative gene expression of BDNF in SH-SY5Y cells; assay type: cell-based, human; conditions: 30 μM each, SH-SY5Y
Description: as §1
The cells were incubated in MEM (Minimum essential medium, Life Technologies) with 10% FCS (fetal calf serum, Biochrom AG) and penicillin/streptomycin (Biochrom AG). The cells were seeded with a density of 1×10^5 cells/cm^2 in 25 cm^2 cell culture bottles (Falcon, cell culture treated) with 5 mL medium. Stock solutions of 10 mmol/L of compounds 9-methyl-β-carboline (AC-002 or 9MβC) and 6-fluoro-9-methyl-β-carboline (AC-102 or 6F9MβC), respectively were prepared in distillated water and sterile filtered. One day after the cell seeding the compounds were added in corresponding amounts (5-55 μL) to reach final concentration in the medium of 10 μM, 20 μM and 30 μM for 6F9MβC and 30 μM, 50 μM and 70 μM for 9MβC. The references received only the corresponding amount of solvent (distilled water). The medium was changed once a week.
The cells were regularly microscopically examined and harvest after 2, 7 and 14 days of incubation time, washed with PBS and immediately frozen at −80° C.
as §3, §4
The specificity was verified by melting curve analysis and subsequent gel electrophoresis. For each PCR the PCR efficiency and the Cq value was determined by the program LinRegPCR and these were used in further calculations. […] Every measured value from FIGS. 5A-5I represents a mean value of 3 independent biologic samples. […]

learning behavior = test: Eight-armed labyrinth learning test; assay type: in vivo, rat; conditions: rats, 2 mg/kg intraperitoneally daily, 2 hours before session; control group 14 days
Description: In an eight-armed labyrinth the effect of 6F9MβC on the learning behavior was tested. 5 months old male rats were got used to the experimenter in daily sessions for 10 days. Afterwards, they were allowed to explore the labyrinth in multiple sessions for 2 days and they also learnt that they get a food reward there. Then the food was reduced until the body weight was reduced by 10% of the starting weight. Afterwards, at each end of the 8 arms of the labyrinth food was placed and a camera installed that recorded every movement of the animal. On the first test day the rat was placed without a prior injection on the platform in the center of the labyrinth. At the next day 2 mg/kg body weight 6-fluoro-9-methyl-β-carboline (6F9MβC) as free base dissolved in physiological sodium chloride solution was administered intraperitoneally to the rat by the experimenter. 2 hours later the animal was placed on the platform in the center of the labyrinth from where it had access to all arms. This procedure was repeated daily until the animal only did one mistake, i.e. went in an arm, which it had already entered before in the corresponding session. At the end of the session all 8 arms had to be visited.
12 rats, that were treated with 6F9MβC and a control group of 12 rats, that only got physiological sodium chloride solution, were examined. […]

[5] = tested on: BTG2 (B-cell translocation gene 2); test: Quantitative RT-PCR, relative gene expression of BTG2 in SH-SY5Y cells; assay type: cell-based, human; conditions: 10 μM 6F9MβC, except after 2-day exposition
Description: as §1, §2, §3, §4, §5

Cn1c2ccc(F)cc2c2ccncc21 [6F9MβC, 6-fluoro-9-methyl-β-carboline]
concentration at which a comparable differentiation of the tested cells is observed ([1]; 15 days incubation): 30 µM | effect on proliferation and morphology of cells ([1]; 15 days, increasing concentrations, pronounced at 30 μM vs 0 μM): inhibits proliferation of cells and induces sprouting of slim extensions as well as a change in size and shape of the cells | increase of the concentration of CREB (factor) (CREB): 8 | increase of the concentration of BDNF [2]: up to three times | Cbln expression relative to expression induced by 9MβC [3]: approximately 1.5 times | BDNF expression relative to expression induced by 9MβC [4]: approximately twice as high | time until the criteria (only one mistake) were reached (learning behavior): 6 days | BTG2 expression compared to the highest concentration of 9MβC [5]: comparable
